Experimental data published in patent publication US20070282007A1, “TREATMENT OF PAIN DISORDERS WITH trans 4-(3,4-DICHLOROPHENYL)-1,2,3,4-TETRAHYDRO-1-NAPHTHALENAMINE AND ITS FORMAMIDE” (SEPRACOR INC., priority 2006, published 2007).
Where two headings read alike, the source gives them in different places.

What was measured:
[1] = target: Dopamine (DA) uptake (Rattus norvegicus, UniProt P23977); test: biochemical
[2] = target: T1, Norepinephrine (NE) uptake (Rattus norvegicus, UniProt Q63380); test: Functional uptake of radiolabeled NE into synaptosomes from rat hypothalamus; format: biochemical
T1 construct: from tissue; host or cells: synaptosomes from rat hypothalamus
T1 sequence (Q63380 1-617): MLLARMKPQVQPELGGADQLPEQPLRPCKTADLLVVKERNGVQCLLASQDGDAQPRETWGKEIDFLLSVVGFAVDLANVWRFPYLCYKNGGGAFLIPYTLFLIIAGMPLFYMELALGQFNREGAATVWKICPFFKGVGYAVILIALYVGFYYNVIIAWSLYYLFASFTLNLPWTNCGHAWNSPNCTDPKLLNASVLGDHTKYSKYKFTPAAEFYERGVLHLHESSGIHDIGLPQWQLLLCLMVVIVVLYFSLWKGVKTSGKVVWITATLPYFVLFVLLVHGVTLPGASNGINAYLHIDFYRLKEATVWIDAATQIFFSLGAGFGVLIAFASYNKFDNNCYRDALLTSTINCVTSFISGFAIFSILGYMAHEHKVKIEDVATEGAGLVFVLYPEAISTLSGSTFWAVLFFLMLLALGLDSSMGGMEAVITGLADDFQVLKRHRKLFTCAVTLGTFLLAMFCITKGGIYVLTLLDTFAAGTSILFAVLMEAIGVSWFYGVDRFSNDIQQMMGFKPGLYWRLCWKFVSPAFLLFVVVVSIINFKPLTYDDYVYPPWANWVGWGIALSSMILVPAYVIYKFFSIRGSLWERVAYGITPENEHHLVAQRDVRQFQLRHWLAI
Procedure: The 5-HT and NE assays were performed essentially as outlined in Perovic S. & Müller W. E. G., Arzneim.-Forsch.

[3] = target: T2, recombinant human Norepinephrine (NE) transporter (Homo sapiens, UniProt P23975); test: Functional uptake of NE into cells expressing recombinant human transporters; format: cell-based; settings: read-out: IC50 inhibition of functional uptake in human transporters, Norepinephrine (NE)
T2 construct: expressed in transfected cells
T2 sequence (P23975 whole entry): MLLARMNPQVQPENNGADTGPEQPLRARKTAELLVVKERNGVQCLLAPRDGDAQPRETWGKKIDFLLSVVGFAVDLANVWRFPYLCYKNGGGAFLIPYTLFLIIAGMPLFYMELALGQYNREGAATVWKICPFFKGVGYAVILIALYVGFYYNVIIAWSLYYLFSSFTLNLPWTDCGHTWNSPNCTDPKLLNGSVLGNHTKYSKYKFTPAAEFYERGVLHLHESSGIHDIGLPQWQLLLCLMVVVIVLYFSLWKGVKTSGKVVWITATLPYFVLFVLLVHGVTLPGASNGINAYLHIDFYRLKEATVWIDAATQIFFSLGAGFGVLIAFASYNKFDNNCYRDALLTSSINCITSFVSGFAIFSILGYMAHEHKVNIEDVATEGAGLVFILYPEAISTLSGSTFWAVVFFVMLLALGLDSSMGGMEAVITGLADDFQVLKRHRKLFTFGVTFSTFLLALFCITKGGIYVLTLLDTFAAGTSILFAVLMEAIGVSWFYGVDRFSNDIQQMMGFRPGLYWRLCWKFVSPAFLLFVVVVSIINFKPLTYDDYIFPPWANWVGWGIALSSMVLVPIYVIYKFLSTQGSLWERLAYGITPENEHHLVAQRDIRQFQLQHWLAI

[4] = target: T3, recombinant human Dopamine (DA) transporter (Homo sapiens, UniProt Q01959); test: Functional uptake of DA into cells expressing recombinant human transporters; format: cell-based; settings: read-out: IC50 inhibition of functional uptake in human transporters, Dopamine (DA)
T3 construct: expressed in transfected cells
T3 sequence (Q01959 whole entry): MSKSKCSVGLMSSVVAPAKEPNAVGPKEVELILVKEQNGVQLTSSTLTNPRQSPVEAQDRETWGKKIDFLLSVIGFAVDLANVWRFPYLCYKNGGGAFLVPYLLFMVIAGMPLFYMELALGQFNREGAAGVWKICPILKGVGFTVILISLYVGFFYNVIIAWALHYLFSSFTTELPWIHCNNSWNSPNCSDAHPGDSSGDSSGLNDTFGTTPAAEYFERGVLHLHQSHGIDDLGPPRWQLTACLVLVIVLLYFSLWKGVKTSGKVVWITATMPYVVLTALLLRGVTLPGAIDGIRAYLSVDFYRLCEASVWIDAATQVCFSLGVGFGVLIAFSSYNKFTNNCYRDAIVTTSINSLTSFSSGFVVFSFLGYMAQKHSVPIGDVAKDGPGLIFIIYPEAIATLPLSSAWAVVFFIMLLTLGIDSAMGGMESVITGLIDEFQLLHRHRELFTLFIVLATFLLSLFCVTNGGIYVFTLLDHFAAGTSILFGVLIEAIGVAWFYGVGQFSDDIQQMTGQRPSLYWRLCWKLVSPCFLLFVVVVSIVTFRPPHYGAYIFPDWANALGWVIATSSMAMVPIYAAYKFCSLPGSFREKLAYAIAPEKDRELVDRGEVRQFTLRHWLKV

[5] = system: Rat SNL Model; test: SNL model of neuropathic pain, mechanical hyperalgesia testing; format: in vivo
Procedure: (§1) The animals were anesthetized with isoflurane, the left L5 transverse process was removed, and the L5 and L6 spinal nerves were tightly ligated with 6-0 silk suture. The wound was then closed with internal sutures and external staples. Wound clips were removed 10-11 days following surgery.
Mechanical hyperalgesia testing: Baseline, post-injury and post-treatment values for […] mechanical sensitivity were evaluated using a Paw Pressure Analgesymeter (7200, Ugo Basile, Comerio, Italy) which generates a linearly increasing mechanical force. The mechanical nociceptive stimulus was applied to the plantar surface of the hind paws by a dome-shaped plastic tip placed between the 3rd and 4th metatarsus. […] Mechanical thresholds were defined as the force in grams at the first pain behavior, which includes paw withdrawal, struggle and/or vocalization. Paw pressure test was performed on each hind paw for each animal. The mean and standard error of the mean (SEM) were determined for each paw, in each treatment group. Mechanical hyperalgesia was evaluated 24 days post-surgery.
(§2) Ten rats were studied per group and the tests were performed blind. (1R,4S)-4-(3,4-dichlorophenyl)-1,2,3,4-tetrahydro-1-naphthalenamine (P) was evaluated at 3 doses (5, 10 and 15 mg/kg), administered orally and compared with a vehicle control group. Gabapentin (100 mg/kg) and duloxetine (30 mg/kg) administered orally under the same experimental conditions, were used as comparator substances. Mechanical allodynia and hyperalgesia testing were conducted at baseline and 1, 2 and 4 hours after test article administration.

[6] = system: Rat SNL Model; test: SNL model of neuropathic pain, mechanical allodynia testing; format: in vivo
Procedure: as §1
Animals were placed on a perforated metallic platform and allowed to acclimate to their surroundings for a minimum of 30 minutes before testing. The mean and standard error of the mean (SEM) were determined for each animal in each treatment group. Since this stimulus is normally not considered painful, significant injury-induced increases in responsiveness in this test are interpreted as a measure of mechanical allodynia. Mechanical allodynia was evaluated 14 days post-surgery.
as §2

[7] = target: 5-HT1B (Homo sapiens, UniProt P28222); test: In vitro radioligand binding assay, 5-HT1B
Chain of 5-HT1B (P28222 whole entry, species assumed): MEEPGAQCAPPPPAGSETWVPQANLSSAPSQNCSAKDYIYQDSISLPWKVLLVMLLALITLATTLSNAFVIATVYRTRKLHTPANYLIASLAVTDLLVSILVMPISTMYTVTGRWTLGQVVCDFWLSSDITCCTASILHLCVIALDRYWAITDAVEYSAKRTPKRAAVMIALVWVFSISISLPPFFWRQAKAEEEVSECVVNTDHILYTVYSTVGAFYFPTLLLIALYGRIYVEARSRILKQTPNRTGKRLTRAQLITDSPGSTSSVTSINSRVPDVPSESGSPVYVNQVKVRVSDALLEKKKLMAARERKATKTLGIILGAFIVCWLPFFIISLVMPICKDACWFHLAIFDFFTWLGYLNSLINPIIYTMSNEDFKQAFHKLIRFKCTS

[8] = target: T4, M5 (Homo sapiens, UniProt P08912); test: In vitro radioligand binding assay, M5
T4 sequence (P08912 1-532): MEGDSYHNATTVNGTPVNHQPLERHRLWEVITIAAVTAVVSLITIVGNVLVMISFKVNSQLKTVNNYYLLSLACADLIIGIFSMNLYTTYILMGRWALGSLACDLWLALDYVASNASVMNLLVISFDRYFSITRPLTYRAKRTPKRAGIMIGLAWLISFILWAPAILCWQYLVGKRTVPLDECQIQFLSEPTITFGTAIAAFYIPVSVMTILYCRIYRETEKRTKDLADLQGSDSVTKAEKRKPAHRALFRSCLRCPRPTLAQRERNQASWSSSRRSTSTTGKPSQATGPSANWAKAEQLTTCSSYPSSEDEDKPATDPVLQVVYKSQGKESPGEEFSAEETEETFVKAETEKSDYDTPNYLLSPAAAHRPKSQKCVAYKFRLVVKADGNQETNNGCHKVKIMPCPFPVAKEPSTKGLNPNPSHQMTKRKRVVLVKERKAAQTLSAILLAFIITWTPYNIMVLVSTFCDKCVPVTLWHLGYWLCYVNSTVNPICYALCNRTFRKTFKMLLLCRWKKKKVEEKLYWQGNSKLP

[9] = target: Ca^2+ Channel Verapamil Site; test: In vitro radioligand binding assay, Ca2+ channel verapamil site
[10] = target: Na^+ Channel Site 2; test: In vitro radioligand binding assay, Na+ channel site 2
[11] = target: T5, M3 receptor (Cavia porcellus, UniProt H0W1Z3); test: Carbachol-induced contraction of the isolated Guinea pig ileum; settings: reference antagonist
T5 construct: from tissue; host or cells: isolated guinea pig ileum
T5 sequence (H0W1Z3 1-590): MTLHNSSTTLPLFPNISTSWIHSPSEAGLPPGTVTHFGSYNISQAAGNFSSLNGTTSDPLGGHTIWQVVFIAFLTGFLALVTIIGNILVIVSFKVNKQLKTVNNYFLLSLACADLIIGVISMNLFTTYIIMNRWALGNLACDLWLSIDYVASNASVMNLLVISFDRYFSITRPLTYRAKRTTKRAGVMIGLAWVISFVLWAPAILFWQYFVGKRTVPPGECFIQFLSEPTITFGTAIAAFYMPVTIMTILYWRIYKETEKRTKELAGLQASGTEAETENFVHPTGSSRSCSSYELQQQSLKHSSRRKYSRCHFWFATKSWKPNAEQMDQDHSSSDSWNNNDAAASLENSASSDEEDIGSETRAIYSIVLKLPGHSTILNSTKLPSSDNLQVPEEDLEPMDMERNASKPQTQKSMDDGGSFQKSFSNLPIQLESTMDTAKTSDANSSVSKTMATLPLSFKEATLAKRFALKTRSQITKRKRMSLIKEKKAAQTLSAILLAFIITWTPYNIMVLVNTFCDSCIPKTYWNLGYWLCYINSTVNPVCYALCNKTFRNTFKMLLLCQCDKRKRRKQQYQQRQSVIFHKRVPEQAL

[12] = target: H2 (Homo sapiens, UniProt P25021); test: In vitro radioligand binding assay, H2
Chain of H2 (P25021 whole entry): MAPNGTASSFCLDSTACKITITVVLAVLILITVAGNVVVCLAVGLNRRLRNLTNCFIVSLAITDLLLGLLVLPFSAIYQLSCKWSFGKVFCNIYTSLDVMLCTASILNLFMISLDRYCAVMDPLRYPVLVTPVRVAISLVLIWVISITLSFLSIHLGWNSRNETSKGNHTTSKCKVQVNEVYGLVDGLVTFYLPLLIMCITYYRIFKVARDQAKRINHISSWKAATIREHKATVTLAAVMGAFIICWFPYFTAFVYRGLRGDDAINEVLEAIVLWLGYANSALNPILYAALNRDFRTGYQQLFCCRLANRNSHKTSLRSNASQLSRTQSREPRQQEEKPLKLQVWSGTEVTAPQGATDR

[13] = target: B2 (Homo sapiens, UniProt P30411); test: In vitro radioligand binding assay, B2
Chain of B2 (P30411 whole entry): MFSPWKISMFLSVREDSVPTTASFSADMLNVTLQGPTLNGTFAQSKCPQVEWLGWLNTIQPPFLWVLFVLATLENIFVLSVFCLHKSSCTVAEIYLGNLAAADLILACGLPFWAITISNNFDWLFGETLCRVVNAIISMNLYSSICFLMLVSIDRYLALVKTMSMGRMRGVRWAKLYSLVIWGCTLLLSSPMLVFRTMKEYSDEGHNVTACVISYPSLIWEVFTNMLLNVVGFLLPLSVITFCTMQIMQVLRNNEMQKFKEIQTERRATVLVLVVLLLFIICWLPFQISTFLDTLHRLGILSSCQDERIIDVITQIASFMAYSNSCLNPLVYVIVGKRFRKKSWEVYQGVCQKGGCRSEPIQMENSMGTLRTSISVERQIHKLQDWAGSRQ

[14] = target: T6, 5-HT1A (Homo sapiens, UniProt P08908); test: In vitro radioligand binding assay, 5-HT1A
T6 sequence (P08908 1-422): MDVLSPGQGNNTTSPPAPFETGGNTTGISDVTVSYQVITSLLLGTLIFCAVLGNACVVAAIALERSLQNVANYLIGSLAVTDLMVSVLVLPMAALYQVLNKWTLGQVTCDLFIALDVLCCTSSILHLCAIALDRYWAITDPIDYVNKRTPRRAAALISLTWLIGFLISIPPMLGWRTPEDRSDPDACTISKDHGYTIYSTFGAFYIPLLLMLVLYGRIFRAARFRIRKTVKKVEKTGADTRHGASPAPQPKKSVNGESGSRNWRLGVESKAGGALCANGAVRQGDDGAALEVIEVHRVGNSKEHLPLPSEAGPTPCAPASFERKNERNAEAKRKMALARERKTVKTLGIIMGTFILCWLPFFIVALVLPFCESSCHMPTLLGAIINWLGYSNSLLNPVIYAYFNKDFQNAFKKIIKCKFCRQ

[15] = system: rats; test: Formalin test, second test with Automated Nociception Analyzer; format: in vivo, rat; settings: automated detection; for Number of Flinches, Acute Phase (Mean ± SEM): 0-10 minutes after formalin; for Number of Flinches, Late Phase (Mean ± SEM): 10-60 minutes after formalin
Procedure: In a second test, flinching behaviors were measured for 90 minutes after formalin injection using an automated detection system. […] This device used a magnetic detection system to measure paw movements, called “flinches”. Small metal bands were attached to the left hind paw of rats just before placement into individual circular test chambers 30 minutes prior to formalin injection. […] In addition to duloxetine, morphine (6 mg/kg, subcutaneously) was used as a comparator substance. Animals were treated with morphine 30 minutes prior to the formalin injection. To initiate the experiment, the rats were injected with formalin subcutaneously on the dorsal surface of the left hind paw and placed in the test chambers. The instrument subsequently recorded rapid foot movements counted in one minute epochs.

[16] = system: rats; test: Formalin paw test in the rat (late phase), flinches counted; format: in vivo
Procedure: Rats were given an intraplantar injection of 5% formalin (50 μl) into the posterior left paw. […] The number of flinches was counted for 15 minutes, beginning 20 minutes after injection of formalin. Eight rats were studied per group. The test was performed blind. […] Data were analyzed by comparing treated groups with vehicle control using unpaired Mann-Whitney U tests.

[17] = 128 mg/kg p.o. 60 min before the test
[18] = 30 mg/kg p.o. 60 min before the test

Chain of Dopamine (DA) uptake (P23977 whole entry): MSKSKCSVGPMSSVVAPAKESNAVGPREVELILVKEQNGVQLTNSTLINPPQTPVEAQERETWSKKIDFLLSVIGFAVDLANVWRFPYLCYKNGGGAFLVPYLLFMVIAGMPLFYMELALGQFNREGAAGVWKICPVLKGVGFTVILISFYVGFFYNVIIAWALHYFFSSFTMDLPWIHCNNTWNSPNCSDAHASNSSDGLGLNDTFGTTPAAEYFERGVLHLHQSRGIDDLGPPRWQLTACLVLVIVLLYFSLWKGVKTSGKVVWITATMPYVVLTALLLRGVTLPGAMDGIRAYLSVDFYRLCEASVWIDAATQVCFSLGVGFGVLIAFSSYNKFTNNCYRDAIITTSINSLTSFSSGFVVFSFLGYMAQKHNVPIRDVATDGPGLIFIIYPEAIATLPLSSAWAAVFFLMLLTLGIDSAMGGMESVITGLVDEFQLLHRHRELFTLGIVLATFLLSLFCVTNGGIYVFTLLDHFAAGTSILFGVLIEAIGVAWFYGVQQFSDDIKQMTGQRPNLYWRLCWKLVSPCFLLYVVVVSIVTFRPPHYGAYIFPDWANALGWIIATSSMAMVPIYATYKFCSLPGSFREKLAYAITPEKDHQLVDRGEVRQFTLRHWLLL

In the case of `CC(NC(C)(C)C)C(=O)c1cccc(Cl)c1` (stereo not shown) [Bupropion, reference compound], the IC50 [1] is reported as 294 nM and the IC50 [2] is reported as 611 nM.
For `N[C@H]1CC[C@H](c2ccc(Cl)c(Cl)c2)c2ccccc21` [Compound Q, (1S,4R)-trans 4-(3,4-dichlorophenyl)-1,2,3,4-tetrahydro-1-napthalenamine], the IC50 [1] was 19 nM, the IC50 [3] was 16.5 nM and the IC50 [4] was 14.4 nM. It also gave an IC50 [2] of 35 nM.
With `NCC1(CC(=O)O)CCCCC1` [Gabapentin, reference compound] the “Mechanical Hyperalgesia, Paw Pressure Threshold (Mean ± SEM)” value (“Mechanical Hyperalgesia … (Mean ± SEM)” for short) ([5]; 100 mg/kg PO, 0 h (Baseline)) was 135 ± 20 g, the “Mechanical Hyperalgesia … (Mean ± SEM)” value ([5]; 100 mg/kg PO, 1 h) was 219 ± 32 g and the “Mechanical Hyperalgesia … (Mean ± SEM)” value ([5]; 100 mg/kg PO, 2 h) was 236 ± 29 g. For the same molecule, the “Mechanical Hyperalgesia … (Mean ± SEM)” value ([5]; 100 mg/kg PO, 4 h) was 255 ± 29 g, the “Mechanical Allodynia, Paw Withdrawal Threshold (Mean ± SEM)” value (“Mechanical Allodynia … (Mean ± SEM)” below) ([6]; 100 mg/kg PO, 0 h (Baseline)) was 2.7 ± 0.1 g and the “Mechanical Allodynia … (Mean ± SEM)” value ([6]; 100 mg/kg PO, 1 h) was 6.6 ± 0.4 g. The “Mechanical Allodynia … (Mean ± SEM)” value ([6]; 100 mg/kg PO, 2 h) was 9.8 ± 0.5 g and the “Mechanical Allodynia … (Mean ± SEM)” value ([6]; 100 mg/kg PO, 4 h) was 6.2 ± 0.4 g.
For `CNCCCN1c2ccccc2CCc2ccccc21` [Desipramine], the Ki [7] was 2700 nM, the Ki ([8]; read-out: Ki, M5) was 470 nM and the Ki [9] was 310 nM. It also gave a Ki [10] of 910 nM.
In the case of `C[N+]1(C)CCC(OC(=O)C(c2ccccc2)c2ccccc2)CC1.[I-]` [Compound 4-DAMP, 4-DAMP, reference compound], the pA2 [11] is reported as “pA2 = 9.2” and the IC50 ([11]; read-out: IC50 for inhibition of carbachol-induced contraction of the Guinea Pig ileum) is reported as 33 nM.
For `COc1ccc(C(CN(C)C)C2(O)CCCCC2)cc1` (stereo not shown) [Venlafaxine], the Ki [8] was over 100000 nM, the Ki [9] was 4800 nM and the Ki [10] was 12000 nM. For the same molecule, the Ki [12] was 89000 nM.
`CN(C)CCCC1(c2ccc(F)cc2)OCc2cc(C#N)ccc21` (stereo not shown) [Citalopram] showed a Ki ([8]; read-out: Ki, M5) of 29000 nM, a Ki [13] of over 100000 nM and a Ki [14] of 15000 nM. The IC50 [2] was 7900 nM.
For `CN1CC[C@]23c4c5ccc(O)c4O[C@H]2[C@@H](O)C=C[C@H]3[C@H]1C5` [Morphine, reference compound], the “Number of Flinches, Acute Phase (Mean ± SEM)” value ([15]; 100 mg/kg SC) was 36 ± 9, the “Number of Flinches, Late Phase (Mean ± SEM)” value ([15]; 100 mg/kg SC) was 32 ± 13 and the “NUMBER OF FLINCHES (20 to 35 min after formalin), mean ± s.e.m.” value [16, 17] was 0.0 ± 0.0. The “NUMBER OF FLINCHES, % change from control” value [16, 17] was −100%.
For `CNCC[C@H](Oc1cccc2ccccc12)c1cccs1` [Duloxetine, reference compound], the “Number of Flinches, Acute Phase (Mean ± SEM)” value ([15]; 30 mg/kg PO) was 168 ± 24, the “Number of Flinches, Late Phase (Mean ± SEM)” value ([15]; 30 mg/kg PO) was 803 ± 112 and the “Mechanical Hyperalgesia … (Mean ± SEM)” value ([5]; 30 mg/kg PO, 0 h (Baseline)) was 153 ± 9 g. The “Mechanical Hyperalgesia … (Mean ± SEM)” value ([5]; 30 mg/kg PO, 1 h) was 306 ± 30 g, the “Mechanical Hyperalgesia … (Mean ± SEM)” value ([5]; 30 mg/kg PO, 2 h) was 345 ± 22 g and the “Mechanical Hyperalgesia … (Mean ± SEM)” value ([5]; 30 mg/kg PO, 4 h) was 330 ± 25 g. For the same molecule, the “NUMBER OF FLINCHES (20 to 35 min after formalin), mean ± s.e.m.” value [16, 18] was 71.4 ± 17.2NS, the “NUMBER OF FLINCHES, % change from control” value [16, 18] was −20% and the “Mechanical Allodynia … (Mean ± SEM)” value ([6]; 30 mg/kg PO, 0 h (Baseline)) was 2.6 ± 0.2 g. The “Mechanical Allodynia … (Mean ± SEM)” value ([6]; 30 mg/kg PO, 1 h) was 7.0 ± 0.5 g, the “Mechanical Allodynia … (Mean ± SEM)” value ([6]; 30 mg/kg PO, 2 h) was 7.9 ± 0.6 g and the “Mechanical Allodynia … (Mean ± SEM)” value ([6]; 30 mg/kg PO, 4 h) was 8.1 ± 0.6 g.
Molecule `N[C@@H]1CC[C@@H](c2ccc(Cl)c(Cl)c2)c2ccccc21` (racemic) [1:1 mixture of Compounds P & Q, trans-4-(3,4-dichlorophenyl)-1,2,3,4-tetrahydro-1-napthalenamine] has an IC50 [1] of 7.1 nM and an IC50 [2] of 8.8 nM.
